# Target: T1, c-MET (HGFR) (Homo sapiens, UniProt P08581)
# T1 construct: purchased Upstate 14-526
# Assay: HGFR Continuous-Coupled Spectrophotometric Assay
# Format: biochemical
# Conditions: Met-2 substrate peptide, 50 nM HGFR, 37° C.; read-out: Met Ki
# Method in brief: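 Tyrosine kinase activity of 50 nM HGFR on the activation-loop Met-2 peptide, followed as NADH consumption at 340 nm over 10 min at 37 °C in a pyruvate kinase/LDH coupled system, HEPES pH 7.5 buffer with MgCl2 and DTT.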
# T1 sequence (P08581 974-1390 limits assumed): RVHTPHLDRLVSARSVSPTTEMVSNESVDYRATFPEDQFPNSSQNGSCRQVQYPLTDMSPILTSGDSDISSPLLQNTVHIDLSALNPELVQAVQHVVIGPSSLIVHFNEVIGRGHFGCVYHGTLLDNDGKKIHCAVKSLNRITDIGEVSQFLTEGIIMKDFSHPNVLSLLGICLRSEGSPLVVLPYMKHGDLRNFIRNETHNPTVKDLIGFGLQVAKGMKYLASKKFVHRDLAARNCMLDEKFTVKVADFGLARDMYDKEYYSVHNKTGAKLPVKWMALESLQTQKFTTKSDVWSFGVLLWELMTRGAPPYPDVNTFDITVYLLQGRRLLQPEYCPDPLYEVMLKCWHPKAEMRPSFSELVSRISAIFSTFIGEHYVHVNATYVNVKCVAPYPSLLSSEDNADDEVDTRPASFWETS
row,Compound,Ki
1,"CC(Oc1cc(-c2cnn(C3CCN(C(=O)NCCO)CC3)c2)cnc1N)c1c(Cl)ccc(F)c1Cl (stereo not shown) [Example 122, 4-(4-[6-Amino-5-[1-(2,6-dichloro-3-fluoro-phenyl)-ethoxy]-pyridin-3-yl}-pyrazol-1-yl)-piperidine-1-carboxylic acid (2-hydroxy-ethyl)-amide]",150 nM
2,"CC(Oc1cc(-c2cnn(C3CCNCC3)c2)cnc1N)c1cc(F)ccc1Br (stereo not shown) [Example 128, 3-[1-(2-Bromo-5-fluoro-phenyl)-ethoxy]-5-(1-piperidin-4-yl-1H-pyrazol-4-yl)-pyridin-2-ylamine]",349 nM
3,"CC(Oc1cccnc1N)c1cc(F)ccc1C#N (stereo not shown) [Example 129, 2-[1-(2-Amino-pyridin-3-yloxy)-ethyl]-4-fluoro-benzonitrile]",6460 nM
4,"CC(Oc1cc(-c2cnn(CC(C)(C)O)c2)cnc1N)c1c(Cl)ccc(F)c1Cl (stereo not shown) [Example 130, 1-(4-{6-Amino-5-[1-(2,6-dichloro-3-fluoro-phenyl)-ethoxy]-pyridin-3-yl}-pyrazol-1-yl)-2-methyl-propan-2-ol]",45 nM
5,"CC(Oc1cc(-c2cnn(CC3(C)COC3)c2)cnc1N)c1c(Cl)ccc(F)c1Cl (stereo not shown) [Example 131, 3-[1-(2,6-Dichloro-3-fluoro-phenyl)-ethoxy]-5-[1-(3-methyl-oxetan-3-ylmethyl)-1H-pyrazol-4-yl]-pyridin-2-ylamine]",50 nM
6,"CC(Oc1cc(-c2cnn(CCN3CCCC3=O)c2)cnc1N)c1c(Cl)ccc(F)c1Cl (stereo not shown) [Example 133, 1-[2-(4-{6-Amino-5-[1-(2,6-dichloro-3-fluoro-phenyl)-ethoxy]-pyridin-3-yl}pyrazol-1-yl)-ethyl]-pyrrolidin-2-one]",105 nM
7,"CC(Oc1cc(-c2cnn(C3CCNCC3)c2)cnc1N)c1cc(F)ccc1C#N (stereo not shown) [Example 135, 2-{1-[2-Amino-5-(1-piperidin-4-yl-1H-pyrazol-4-yl)-pyridin-3-yloxy]ethyl}-4-fluoro-benzonitrile]",849 nM
8,"Cc1ccc(Cl)c(C(C)Oc2cc(Br)cnc2N)c1Cl (stereo not shown) [Example 142, 5-Bromo-3-[1-(2,6-dichloro-3-methyl-phenyl)ethoxy]-pyridin-2-ylamine]",2510 nM
9,"CC(Oc1cc(-c2cnn(C3CCNCC3)c2)cnc1N)c1cc(F)cc(F)c1Cl (stereo not shown) [Example 144, 3-[1-(2-Chloro-3,5-difluoro-phenyl)-ethoxy]-5-(1-piperidin-4-yl-1H-pyrazol-4-yl)-pyridin-2-ylamine]",587 nM
10,"CC(Oc1cc(-c2cnn(C)c2)cnc1N)c1c(Cl)c(F)cc(F)c1Cl (stereo not shown) [Example 149, 3-[1-(2,6-Dichloro-3,5-difluoro-phenyl)-ethoxy]-5-(1-methyl-1H-pyrazol-4-yl)-pyridin-2-ylamine]",72 nM
11,"CC(Oc1cc(-c2cnn(C3CCNCC3)c2)cnc1N)c1c(Cl)c(F)cc(N(C)C)c1Cl (stereo not shown) [Example 150, 3-[1-(2,6-Dichloro-3-dimethylamino-5-fluoro-phenyl)-ethoxy]-5-(1-piperidin-4-yl-1H-pyrazol-4-yl)-pyridin-2-ylamine]",163 nM
12,"CC(Oc1cc(Br)cnc1N)c1c(Cl)c(F)cc(OCCN(C)C)c1Cl (stereo not shown) [Example 153, 5-Bromo-3-{1-[2,6-dichloro-3-(2-dimethylamino-ethoxy)-5-fluoro-phenyl]-ethoxy}-pyridin-2-ylamine]",805 nM
13,"COc1cc(Cl)c(C(C)Oc2cc(-c3cnn(C4CCNCC4)c3)cnc2N)c(Cl)c1OC (stereo not shown) [Example 154, 3-(1-(2,6-Dichloro-3-dimethoxy-phenyl)-ethoxy]-5-(1-piperidin-4-yl-1H-pyrazol-4-yl)-pyridin-2-ylamine]",105 nM
14,"CC(Oc1cc(-c2cnn(C3CCNCC3)c2)cnc1N)c1c(Cl)c(F)cc(N2CCCC2=O)c1Cl (stereo not shown) [Example 157, 1-(3-{1-[2-Amino-5-(1-piperidin-4-yl-1H-pyrazol-4-yl)-pyridin-3-yloxy]-ethyl]-2,4-dichloro-5-fluoro-phenyl)-pyrrolidin-2-one]",51 nM

# More lines, now with the values ahead:
row,Ki,Compound
1,13 nM,"CC(Oc1cc(-c2cnn(C3CCN(C(=O)CN4CCOCC4)CC3)c2)cnc1N)c1c(Cl)ccc(F)c1Cl (stereo not shown) [Example 123, 1-[4-(4-{6-Amino-5-[1-(2,6-dichloro-3-fluoro-phenyl)-ethoxy]-pyridin-3-yl}-pyrazol-1-yl)-piperidin-1-yl]-2-morpholin-4-yl-ethanone]"
2,14 nM,"COCC(=O)N1CCC(n2cc(-c3cnc(N)c(OC(C)c4c(Cl)ccc(F)c4Cl)c3)cn2)CC1 (stereo not shown) [Example 124, 1-[4-(4-{6-Amino-5-[1-(2,6-dichloro-3-fluoro-phenyl)-ethoxy]-pyridin-3-yl}-pyrazol-1-yl)-piperidin-1-yl]-2-methoxy-ethanone]"
3,14 nM,"CC(Oc1cc(-c2cnn(C3CCN(C(=O)CN4CCCC4)CC3)c2)cnc1N)c1c(Cl)ccc(F)c1Cl (stereo not shown) [Example 125, 1-[4-(4-{6-Amino-5-[1-(2,6-dichloro-3-fluoro-phenyl)-ethoxy]-pyridin-3-yl}-pyrazoI-1-yl)-piperidin-1-yl]-2-pyrrolidin-1-yl-ethanone]"
4,15 nM,"CCN(CC)CC(=O)N1CCC(n2cc(-c3cnc(N)c(OC(C)c4c(Cl)ccc(F)c4Cl)c3)cn2)CC1 (stereo not shown) [Example 126, 1-[4-(4-{6-Ainino-5-[1-(2,6-dichloro-3-fluoro-phenyl)-ethoxy]-pyridin-3-yl}-pyrazol-1-yl)-piperidin-1-yl]-2-diethylamino-ethanone]"
5,42 nM,"CC(Oc1cc(-c2cnn(CC3CCOCC3)c2)cnc1N)c1c(Cl)ccc(F)c1Cl (stereo not shown) [Example 132, 3-[1-(2,6-Dichloro-3-fluoro-phenyl)-ethoxy]-5-[1-(tetraydro-pyran-4-ylmethyl)-1H-pyrazol-4-yl]-pyridin-2-amine]"
6,24 nM,"CC(Oc1cc(-c2cnn(C[C@H]3CCC(=O)N3)c2)cnc1N)c1c(Cl)ccc(F)c1Cl (stereo partly drawn) [Example 134, 5-(4-{6-Amino-5-[1-(2,6-dichloro-3-fluoro-phenyl)-ethoxy]-pyridin-3-yl}-pyrazol-1-ylmethyl)-pyrrolidin-2R-one]"
7,42 nM,"CC(Oc1cc(-c2cnn(C3CCNCC3)c2)cnc1N)c1c(Cl)ccc(O)c1Cl (stereo not shown) [Example 136, 3-{1-[2-Amino-5-(1-piperidin-4-yl-1H-pyrazol-4-yl)-pyridin-3-yloxy]-ethyl}-2,4-dichloro-phenol]"
8,10 nM,"COc1ccc(Cl)c(C(C)Oc2cc(-c3cnn(C4CCNCC4)c3)cnc2N)c1Cl (stereo not shown) [Example 138, 3-(1-(2,6-Dichloro-3-methoxy-phenyl)-ethoxy]-5-(1-piperidin-4-yl-1H-pyrazol-4-yl)-pyridin-2-ylamine]"
9,22 nM,CCOc1ccc(Cl)c(C(C)Oc2cc(-c3cnn(C4CCNCC4)c3)cnc2N)c1Cl (stereo not shown) [Example 139]
10,37 nM,"CC(C)Oc1ccc(Cl)c(C(C)Oc2cc(-c3cnn(C4CCNCC4)c3)cnc2N)c1Cl (stereo not shown) [Example 140, 3-[1-(2,6-Dichloro-3-isopropoxy-phenyl)-ethoxy]-5-(1-piperidin-4-yl-1H-pyrazol-4-yl)-pyridin-2-ylamine]"
11,44 nM,"COCCOc1ccc(Cl)c(C(C)Oc2cc(-c3cnn(C4CCNCC4)c3)cnc2N)c1Cl (stereo not shown) [Example 141, 3-{1-(2,6-Dichloro-3-(2-methoxy-ethoxy)-phenyl]-ethoxy}-5-(1-piperidin-4-yl-1H-pyrazol-4-yl)-pyridin-2-ylamine]"
12,22 nM,"Cc1ccc(Cl)c(C(C)Oc2cc(-c3cnn(C4CCNCC4)c3)cnc2N)c1Cl (stereo not shown) [Example 143, 3-[1-(2,6-Dichloro-3-methyl-phenyl)-ethoxy]-5-(1-piperidin-4-yl-1H-pyrazol-4-yl)-pyridin-2-ylamine]"
13,30 nM,"CC(Oc1cc(Br)cnc1N)c1c(Cl)c(F)cc(F)c1Cl (stereo not shown) [Example 145, 5-Bromo-3-[1-(2,6-dichloro-3,5-difluoro-phenyl)-ethoxy]-pyridin-2-ylamine]"
14,30 nM,"CC(Oc1cc(-c2cnn(C3CCNCC3)c2)cnc1N)c1c(Cl)c(F)cc(F)c1Cl (stereo not shown) [Example 146, 3-[1-(2,6-Dichloro-3,5-difluoro-phenyl)-ethoxy]-5-(1-piperidin-4-yl-1H-pyrazol-4-yl)-pyridin-2-ylamine]"
15,30 nM,"CC(Oc1cc(-c2cnn(C3CCNCC3)c2)cnc1N)c1c(Cl)c(O)cc(F)c1Cl (stereo not shown) [Example 147, 3-{1-[2-Amino-5-(1-piperidin-4-yl-1H-pyrazol-4-yl)-pyridin-3-yloxy]ethyl}-2,4-dichloro-5-fluoro-phenol]"
16,23 nM,"COc1cc(F)c(Cl)c(C(C)Oc2cc(-c3cnn(C4CCNCC4)c3)cnc2N)c1Cl (stereo not shown) [Example 148, 3-[1-(2,6-Dichloro-3-fluoro-5-methoxy-phenyl)-ethoxy]-5-(1-peridin-4-yl-1H-pyrazol-4-yl)-pyridin-ylamine]"
17,25 nM,"CC(Oc1cc(-c2cnn(C)c2)cnc1N)c1c(Cl)c(F)cc(OC2CCNCC2)c1Cl (stereo not shown) [Example 151, 3-{1-[2,6-Dichloro-3-fluoro-5-(piperidin-4-yloxy)-phenyl]-ethoxy]-5-(1-methyl-1H-pyrazol-4-yl)-pyridin-2-ylamine]"
18,32 nM,"CC(Oc1cc(-c2cnn(C)c2)cnc1N)c1c(Cl)c(F)cc(O[C@@H]2CCNC2)c1Cl (stereo partly drawn) [Example 152, 3-{1-[2,6-Dichloro-3-fluoro-5-(pyrrolidin-3R-yloxy)-phenyl]-ethoxy}-5-(1-methyl-1H-pyrazol-4-yl)-pyridin-2-ylamine]"
19,29 nM,"CC(Oc1cc(-c2cnn(C)c2)cnc1N)c1c(Cl)c(F)cc(OC2CNC2)c1Cl (stereo not shown) [Example 155, 3-{1-[3-(Azetidin-3-yloxy)-2,6-dichloro-5-fluoro-phenyl]-ethoxy}-5-(1-methyl-1H-pyrazol-4-yl)-pyridin-2-ylamine]"
20,36 nM,"CC(Oc1cc(-c2cnn(C)c2)cnc1N)c1c(Cl)c(F)cc(OC2CCCNC2)c1Cl (stereo not shown) [Example 156, 3-{1-(2,6-Dichloro-3-fluoro-5-(piperidin-3-yloxy)-phenyl]-ethoxy}-5-(1-methyl-1H-pyrazol-4-yl)-pyridin-2-ylamine]"

# — patent publication US20060128724A1, “Pyrazole-substituted aminoheteroaryl compounds as protein kinase inhibitors” (AGOURON PHARMACEUTICALS, INC., priority 2004, published 2006)
